Results: patent US7767679B2, “Sulfonylamino-derivatives as novel inhibitors of histone deacetylase” (Janssen Pharmaceutica N.V., priority 2002, dated 2010)

Columns and labels:
[1] = system: A2780 ovarian carcinoma cells; assay: Antiproliferative activity on A2780 cells (MTT); assay type: cell-based; details: Homo sapiens, 96 h, four days of incubation, read-out: Cellular activity pIC50 (converted)
Experimental: Cellular activity of the compounds of formula (I) was determined on A2780 tumour cells using a colorimetric assay for cell toxicity or survival (Mosmann Tim, Journal of Immunological Methods 65: 55-63, 1983)(see example C.2).
All compounds tested were dissolved in DMSO and further dilutions were made in culture medium. Final DMSO concentrations never exceeded 0.1% (v/v) in cell proliferation assays. Controls contained A2780 cells and DMSO without compound and blanks contained DMSO but no cells. MTT was dissolved at 5 mg/ml in PBS. A glycine buffer comprised of 0.1 M glycine and 0.1 M NaCl buffered to pH 10.5 with NaOH (1 N) was prepared (all reagents were from Merck).
The human A2780 ovarian carcinoma cells (a kind gift from Dr. T. C. Hamilton [Fox Chase Cancer Centre, Pennsylvania, USA]) were cultured in RPMI 1640 medium supplemented with 2 mM L-glutamine, 50 μg/ml gentamicin and 10% fetal calf serum. Cells were routinely kept as monolayer cultures at 37° C. in a humidified 5% CO2 atmosphere. Cells were passaged once a week using a trypsin/EDTA solution at a split ratio of 1:40. All media and supplements were obtained from Life Technologies. Cells were free of mycoplasma contamination as determined using the Gen-Probe Mycoplasma Tissue Culture kit (supplier: BioMérieux).
Cells were seeded in NUNC™ 96-well culture plates (Supplier: Life Technologies) and allowed to adhere to the plastic overnight. Densities used for plating were 1500 cells per well in a total volume of 200 μl medium. After cell adhesion to the plates, medium was changed and drugs and/or solvents were added to a final volume of 200 μl. Following four days of incubation, medium was replaced by 200 μl fresh medium and cell density and viability was assessed using an […] assay. To each well, 25 μl μl MTT solution was added and the cells were further incubated for 2 hours at 37° C. The medium was then carefully aspirated and the blue MT-formazan product was solubilized by addition of 25 μl glycine buffer followed by 100 μl of DMSO. […] Within an experiment, the results for each experimental condition are the mean of 3 replicate wells. For initial screening purposes, compounds were tested at a single fixed concentration of 10^−6 M. For active compounds, the experiments were repeated to establish full concentration-response curves. For each experiment, controls (containing no drug) and a blank incubation (containing no cells or drugs) were run in parallel. The blank value was subtracted from all control and sample values. For each sample, the mean value for cell growth (in absorbance units) was expressed as a percentage of the mean value for cell growth of the control. […] Herein the effects of test compounds are expressed as pIC50 (the negative log value of the IC50-value).

[2] = molecular target: histone deacetylase (HeLa nuclear extracts); assay: In vitro assay for inhibition of histone deacetylase; assay type: biochemical; details: HeLa nuclear extracts 60 μg/ml, [3H]acetylated histone H4 peptide substrate, 30 min
Experimental: The in vitro assay for inhibition of histone deacetylase (see example C.1) measures the inhibition of HDAC enzymatic activity obtained with the compounds of formula (I).
HeLa nuclear extracts (supplier: Biomol) were incubated at 60 μg/ml with 2×10^−8 M of radiolabeled peptide substrate. As a substrate for measuring HDAC activity a synthetic peptide, i.e. the amino acids 14-21 of histone H4, was used. The substrate is biotinylated at the NH2-terminal part with a 6-aminohexanoic acid spacer, and is protected at the COOH-terminal part by an amide group and specifically [^3H]acetylated at lysine 16. The substrate, biotin-(6-aminohexanoic)Gly-Ala-([^3H]-acetyl-Lys-Arg-His-Arg-Lys-Val-NH2), was added in a buffer containing 25 mM Hepes, 1 M sucrose, 0.1 mg/ml BSA and 0.01% Triton X-100 at pH 7.4. After 30 min the deacetylation reaction was terminated by the addition of HCl and acetic acid. (final concentration […] respectively). After stopping the reaction, the free ^3H-acetate was extracted with ethylacetate. After mixing and centrifugation, the radioactivity in an aliquot of the upper (organic) phase was counted in β-counter.
For each experiment, controls (containing HeLa nuclear extract and DMSO without compound), a blank incubation (containing DMSO but no HeLa nuclear extract or compound) and samples (containing compound dissolved in DMSO and HeLa nuclear extract) were run in parallel. In first instance, compounds were tested at a concentration of 10^−5M. […] In each test the blank value was substracted from both the control and the sample values. The control sample represented 100% of substrate deactylation. For each sample the radioactivity was expressed as a percentage of the mean value of the controls. […] Herein the effects of test compounds are expressed as pIC50 (the negative log value of the IC50-value).

| SMILES | IC50 [1] [nM] | Enzyme activity pIC50 [2] |
| --- | --- | --- |
| O=C(Nc1ccc(N2CCC(NS(=O)(=O)c3ccc4ccccc4c3)CC2)cc1)/C(Cc1ccccc1)=N/O [compound 19] | 4300 | <5 |
| O=C(NO)c1cnc(N2CCC(CNS(=O)(=O)c3ccc(-c4ccccc4)cc3)CC2)nc1 [compound 21] | 362 | 8.199 |
| CO[C@@H]1CN(c2ncc(C(=O)NO)cn2)CC[C@@H]1NS(=O)(=O)c1ccc2ccccc2c1 [compound 23] | 3370 | 6.662 |
| O=C(NO)c1cnc(N2CCCC(NS(=O)(=O)c3ccc4ccccc4c3)CC2)nc1 (stereo not drawn) [compound 24] | 1070 | 7.903 |
| O=C(NO)c1cnc(N2CCC(NS(=O)(=O)c3ccc4ccccc4c3)C2)nc1 (stereo not drawn) [compound 31] | 5960 | 7.857 |
| O=C(NO)c1cnc(N2CCN(CCNS(=O)(=O)c3ccc4ccccc4c3)CC2)nc1 [compound 32] | 556 | 7.526 |
| O=C(NO)c1cnc(N2CCC(N(CCO)S(=O)(=O)c3ccc4ccccc4c3)CC2)nc1 [compound 34] | 2400 | 7.337 |
| COCCN(C1CCN(c2ncc(C(=O)NO)cn2)CC1)S(=O)(=O)c1ccc2ccccc2c1 [compound 35] | 1160 | 7.046 |
| O=C(NO)c1cnc(N2CCC(CNS(=O)(=O)c3ccccc3-c3ccc(CO)cc3)CC2)nc1 [compound 36] | 1050 | 7.265 |
| O=C(NO)c1cnc(N2CCC(CNS(=O)(=O)c3ccccc3-c3cccc(CO)c3)CC2)nc1 [compound 37] | 2180 | 7.341 |
| O=C(NO)c1cnc(N2CCC(CNS(=O)(=O)c3ccccc3-c3ccoc3)CC2)nc1 [compound 38] | 1160 | 7.154 |
| Cc1cccc(-c2ccccc2S(=O)(=O)NCC2CCN(c3ncc(C(=O)NO)cn3)CC2)c1 [compound 39] | 885 | 7.126 |
| O=C(NO)c1cnc(N2CCC(CNS(=O)(=O)c3ccccc3-c3ccsc3)CC2)nc1 [compound 40] | 685 | 7.273 |
| Cc1ccccc1-c1ccccc1S(=O)(=O)NCC1CCN(c2ncc(C(=O)NO)cn2)CC1 [compound 41] | 471 | 7.403 |
| COc1cccc(-c2ccccc2S(=O)(=O)NCC2CCN(c3ncc(C(=O)NO)cn3)CC2)c1 [compound 42] | 455 | 7.584 |
| O=C(NO)c1cnc(N2CCC(CNS(=O)(=O)c3ccccc3-c3cc4ccccc4o3)CC2)nc1 [compound 43] | 738 | 7.469 |
| CN(C)c1ccc(-c2ccccc2S(=O)(=O)NCC2CCN(c3ncc(C(=O)NO)cn3)CC2)cc1 [compound 44] | 643 | 7.432 |
| COc1ccc(-c2ccccc2S(=O)(=O)NCC2CCN(c3ncc(C(=O)NO)cn3)CC2)cc1 [compound 45] | 513 | 7.371 |
